Results from patent publication EP0722733A1, “BLOOD VESSEL THICKENING INHIBITOR AND SMOOTH MUSCLE FIBER MIGRATION INHIBITOR EACH CONTAINING 7-THIAPROSTAGLANDIN E 1? COMPOUND AS ACTIVE INGREDIENT” (TEIJIN LIMITED, priority 1993, dated 1995).

Tests used:
[1] = tested on: vascular smooth muscle cells derived from normal human arteries; assay: Suppression of PDGF-mediated migration of human vascular smooth muscle cells in vitro (Transwell chamber); assay type: cell-based; settings: human PDGF 10 ng/ml, 6 hours; for No. of wandering cells: average cell count of five fields ± standard deviation, control 86.4±20.1
Protocol: To investigate the activity of the tested compound to inhibit cell migration, the migrated cells mediated by human platelet derived growth factor (PDGF) were measured in the following way using the vascular smooth muscle cells derived from normal human arteries and according to the method of MaCarthy et al. (J. Cell. Biol. 97, 772-777 (1983)). That is, a Transwell Chamber (Costar Co., registered trademark) was used to measure the inhibitory action. The chamber was divided into two layers, upper and lower, by a 8 µm pore size membrane filter (PVP - free polycarbonate filter, Nucleopore Co., registered trademark). The filter was precoated on its lower surface with 5 µg of rat tail collagen type 1 (Becton Dickinson Co.) To the upper chamber (100 µl) was added a 1.5 × 10^6/ml suspension of cells (DMEM (made by Flow Laboratories Co.) containing 0.1% BSA (made by Nakalai Tesque Co.) In the lower chamber (600 µl) was placed the same solution diluted by human PDGF (made by Becton Dickinson) to give a final concentration of 10 ng/ml. At this time, the tested compound was added in different concentrations to both the upper and lower chambers. The chambers were incubated at 37°C under 5% CO2 for 6 hours, then the filter was removed, fixed in 99.7% methanol, then stained with hematoxylin and eosin. The cells on the upper surface of the filter were removed by wiping with a cotton swab and the cells that had migrated to the lower surface of the filter were counted under a high output microscope (×200, ×400). Usually, five fields were counted per filter. The migrated cells were shown by the average cell count of five fields ± standard deviation. The significant difference was examined by the Student's two-tailed t test.

[2] = tested on: Rat Carotid Artery Endothelium; assay: Suppression of intima thickening after balloon catheter trauma to rat carotid artery endothelium; assay type: in vivo, SD rats; settings: for Intima: from 2 days before to 14 days after surgery, area of thickened intima; for Intima/Media / Media: 14 days after surgery; for Media: area of media; for Suppression rate: intima thickening suppression rate = (1-T/C) x 100 of Intima/Media versus solvent control
Protocol: The test was performed in the following manner in accordance with the method of Krauz et al. (Lab. Invest., vol. 49, p. 208, 1983). Male SD rats having a body weight of 400 to 500g was used. The neck of each rat was opened under anesthesia by sodium pentobarbitol, then a balloon catheter (Fogarty, 2F) was inserted from the right external carotid artery until the starting portion of the common carotid artery. The balloon was expanded by physiological saline to such an extent causing a light resistance, then the catheter was pulled out in that state up to the carotid artery to give trauma to the intima. This procedure was repeated three times, then the catheter was withdrawn and the external carotid artery was sewn up. After 14 days, the chest was opened under anesthesia by pentobarbitol, refluxing was performed from the left ventricle by physiological saline containing heparin (20 units/ml), then the left common carotid artery was excised and immobilized by neutral formalin solution. The immobilized carotid artery was dyed by Olsein dye, then the areas of the media and thickened portion of the intima were measured by an image resolution device (LUZEX2D).
The test drug began to be administered subcutaneously at a rate of 1.0 µg/rat/hr or 3.2 µg/rat/hr using a miniosmotic pump buried in the back of the rat from two days before the surgery and was continued until 14 days after the surgery. The activity of the drug in suppressing intima thickening was found from the following formula.

SD rats = assay: Acute toxicity test, oral; assay type: in vivo; settings: male SD rats, 6 weeks old, deaths/animals
Protocol: (§1) The above test compound was tested for acute toxicity using SD rats (6 weeks old, SPE, male) (p.o.), whereupon the results shown in the following Table 4 were obtained.

[3] = Acute toxicity test, oral; assay type: in vivo; settings: rat, in vivo, po, male SD rats; judged from Table 4
Protocol: as §1

[4] = tested on: rat vascular smooth muscle cells (SMC); assay: Suppression of PDGF-induced wandering of rat vascular smooth muscle cells in vitro (blind well chamber); assay type: cell-based, rats; settings: PDGF 20 ng/ml, 4 hours; for No. of wandering cells: average ± standard error, n=3, control 176±19; for Suppression rate: cell wandering suppression rate = 100 - (T/C x 100)
Protocol: Media tissue of the chest arteries of the rats was sampled in accordance with the method of Ross (J. Cell Biol. 50: 172-186, 1971), then was incubated by a Delvecco Modified Eagle Medium (DMEM) containing 10% fetal calf serum in a CO2 incubator (95% air-5% CO2, 37°C, humidity 100%). The fourth generation cultured cells were used for the experiment. The rat vascular smooth muscle cells (SMC) were freed by a 0.008% trypsin-0.01% EDTA solution and made to wander in DMEM containing 0.1% bovine serum albumin. The wandering of the cells was observed using a 24-well blind well chamber made by Neuro Probe. In the lower chambers were placed 100 µl amounts of a mixture of the cell wandering factor (platelet derived growth factor PDGF 20 ng/ml) and the drug. These were covered by a Nuclepore filter (pore size, 8 µm) made by Corning. 100 µl amounts of the incubation solution containing the drug and in which 5 × 10^5 cells/ml of SMC were made to wander were placed in the top chambers and allowed to stand in a CO2 incubator for 4 hours. After the end of the incubation, the smooth muscle cells were immobilized for each filter, then were Propidum dyed. The cells in the lower chambers were counted in four fields under a laser microscope in a 0.48 mm^2 area field. The average was used as the number of wandering cells.
The rate of suppression of cell wandering (%) was found from the following formula. Cell wandering suppression rate (%) = 100 - (T/C × 100) [formula] wherein, C and T respectively show the number of wandering cells at the time of addition of cell wandering factor minus the number of wandering cells at the time of no addition of cell wandering factor and the number of wandering cells at the time of addition of the drug.

[5] = 1.0 µg/rat/hr s.c. by miniosmotic pump

In the case of `CCCCC[C@H](O)/C=C/[C@H]1[C@H](O)CC(=O)[C@@H]1CCCCCCC(=O)O` [Prostaglandin E1, reference compound], the “No. of wandering cells” value ([1]; 10^-7 M) is reported as 82.6±17.8, the “No. of wandering cells” value ([1]; 10^-8 M) is reported as 82.4±6.9 and the Suppression rate ([1]; 10^-9 M) is reported as “No significance”. The “No. of wandering cells” value ([1]; 10^-9 M) was 91.0±9.8.

In the case of `CCCC[C@@H](C)C[C@H](O)/C=C/[C@H]1[C@H](O)CC(=O)[C@@H]1SCCCCCC(=O)OC` [Test Compound, (17R)-17,20-dimethyl-7-thiaprostaglandin E1 methyl ester], the Intima ([2]; 1.0 µg/rat/hr s.c. by miniosmotic pump, average, standard error in the row below) is reported as 0.118 mm², the Intima/Media [2, 5] is reported as 0.842 and the Media [2, 5] is reported as 0.14 mm². It also gave a Suppression rate ([2]; 1.0 µg/rat/hr s.c.) of 13.1%, an Intima ([2]; 3.2 µg/rat/hr s.c. by miniosmotic pump, P < 0.01 vs control) of 0.093 mm² and an Intima/Media ([2]; 3.2 µg/rat/hr s.c. by miniosmotic pump, P < 0.05 vs control) of 0.630. For the same compound, the Media ([2]; 3.2 µg/rat/hr s.c. by miniosmotic pump) was 0.158 mm², the Suppression rate ([2]; 3.2 µg/rat/hr s.c.) was 31.4% and the No. of deaths (SD rats; 20 mg/kg p.o.) was 0/2. For the same compound, the No. of deaths (SD rats; 100 mg/kg p.o.) was 1/2, the No. of deaths (SD rats; 200 mg/kg p.o.) was 2/2 and the LD50 [3] was ~100 mg/kg. For the same compound, the Suppression rate ([1]; 10^-7 M) was 78.0%, the “No. of wandering cells” value ([1]; 10^-7 M) was 19.0±11.8 and the Suppression rate ([1]; 10^-8 M) was 41.0%. The “No. of wandering cells” value ([1]; 10^-8 M) was 51.0±9.5, the Suppression rate ([1]; 10^-9 M) was 22.2% and the “No. of wandering cells” value ([1]; 10^-9 M) was 67.2±15.7. The “No. of wandering cells” value ([4]; 10^-8 M) was 107±15##(T) cells/0.48 mm^2, the Suppression rate ([4]; 10^-8 M) was 39.2% and the “No. of wandering cells” value ([4]; 10^-9 M) was 117±19##(T) cells/0.48 mm^2. The Suppression rate ([4]; 10^-9 M) was 33.5%.
